Laboratory results: article PMC6978363, “Chaperone mediated detection of small molecule target binding in cells” (Nature Communications, 2020)

Tests used:
Assay in all cases: biochemical
YSK1 = target: T1, YSK1 (Homo sapiens, UniProt O00506); settings: read-out: % Inhibition (at 10mM)
T1 construct: gene STK25

PRKAA1 = PRKAA1 (Homo sapiens, UniProt Q13131); settings: read-out: % Inhibition (at 10mM)
FGFR4 = FGFR4 (Homo sapiens, UniProt P22455); settings: read-out: % Inhibition (at 10mM)
CK1_delta = target: T2, CK1_delta (Homo sapiens, UniProt P48730); settings: read-out: % Inhibition (at 10mM)
T2 construct: gene CSNK1D

CSK = CSK (Homo sapiens, UniProt P41240); settings: read-out: % Inhibition (at 10mM)
Chain of CSK (P41240 whole entry): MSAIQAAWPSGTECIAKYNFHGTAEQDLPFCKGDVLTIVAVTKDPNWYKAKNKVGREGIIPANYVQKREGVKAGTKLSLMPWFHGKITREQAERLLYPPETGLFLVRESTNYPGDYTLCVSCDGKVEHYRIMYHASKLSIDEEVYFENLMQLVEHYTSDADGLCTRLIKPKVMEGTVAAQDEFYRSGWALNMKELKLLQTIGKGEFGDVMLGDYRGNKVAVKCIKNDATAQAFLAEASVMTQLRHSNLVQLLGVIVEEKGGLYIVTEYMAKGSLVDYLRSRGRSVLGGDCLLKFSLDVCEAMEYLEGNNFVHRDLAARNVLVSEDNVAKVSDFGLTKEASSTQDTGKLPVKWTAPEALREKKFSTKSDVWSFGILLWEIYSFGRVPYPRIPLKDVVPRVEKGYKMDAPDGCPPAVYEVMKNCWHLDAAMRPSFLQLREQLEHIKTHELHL

PAK4 = PAK4 (Homo sapiens, UniProt O96013); settings: read-out: % Inhibition (at 10mM)
DYRK1A = DYRK1A (Homo sapiens, UniProt Q13627); settings: read-out: % Inhibition (at 10mM)
IKK_beta = target: T3, IKK_beta (Homo sapiens, UniProt O14920); settings: read-out: % Inhibition (at 10mM)
T3 construct: gene IKBKB
T3 sequence (O14920 whole entry): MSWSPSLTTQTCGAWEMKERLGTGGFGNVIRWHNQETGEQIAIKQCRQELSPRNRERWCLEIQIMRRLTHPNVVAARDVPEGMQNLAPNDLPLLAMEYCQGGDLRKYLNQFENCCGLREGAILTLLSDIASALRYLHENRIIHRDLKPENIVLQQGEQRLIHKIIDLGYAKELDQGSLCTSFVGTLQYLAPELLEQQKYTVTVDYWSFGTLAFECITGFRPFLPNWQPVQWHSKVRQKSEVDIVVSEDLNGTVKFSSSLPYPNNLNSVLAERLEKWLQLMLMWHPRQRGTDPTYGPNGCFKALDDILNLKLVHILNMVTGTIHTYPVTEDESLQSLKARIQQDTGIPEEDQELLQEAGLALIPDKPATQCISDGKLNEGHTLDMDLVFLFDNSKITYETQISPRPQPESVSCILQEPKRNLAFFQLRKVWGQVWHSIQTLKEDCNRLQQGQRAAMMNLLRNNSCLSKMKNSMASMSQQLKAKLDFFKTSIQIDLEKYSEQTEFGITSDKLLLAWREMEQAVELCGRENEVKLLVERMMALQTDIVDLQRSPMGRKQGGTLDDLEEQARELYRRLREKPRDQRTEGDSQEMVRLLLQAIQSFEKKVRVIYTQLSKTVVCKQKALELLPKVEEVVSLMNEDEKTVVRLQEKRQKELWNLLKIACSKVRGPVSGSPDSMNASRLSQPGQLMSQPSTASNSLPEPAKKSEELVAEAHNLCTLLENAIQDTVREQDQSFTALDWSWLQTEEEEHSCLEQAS

YSK4 = target: T4, YSK4 (Homo sapiens, UniProt Q56UN5); settings: read-out: % Inhibition (at 10mM)
T4 construct: gene MAP3K19

p38_gamma = target: T5, p38_gamma (Homo sapiens, UniProt P53778); settings: read-out: % Inhibition (at 10mM)
T5 construct: gene MAPK12

PKC_gamma = target: T6, PKC_gamma (Homo sapiens, UniProt P05129); settings: read-out: % Inhibition (at 10mM)
T6 construct: gene PRKCG

InsR = InsR (Homo sapiens, UniProt P06213); settings: read-out: % Inhibition (at 10mM)
PhK_gamma2 = target: T7, PhK_gamma2 (Homo sapiens, UniProt P15735); settings: read-out: % Inhibition (at 10mM)
T7 construct: gene PHKG2

PKC_alpha = target: T8, PKC_alpha (Homo sapiens, UniProt P17252); settings: read-out: % Inhibition (at 10mM)
T8 construct: gene PRKCA

CK1_gamma1 = target: T9, CK1_gamma1 (Homo sapiens, UniProt Q9HCP0); settings: read-out: % Inhibition (at 10mM)
T9 construct: gene CSNK1G1

Abl = target: T10, Abl (Homo sapiens, UniProt P00519); settings: read-out: % Inhibition (at 10mM)
T10 construct: gene ABL1

Lyn = Lyn (Homo sapiens, UniProt P07948); settings: read-out: % Inhibition (at 10mM)
GSK3_beta = target: T11, GSK3_beta (Homo sapiens, UniProt P49841); settings: read-out: % Inhibition (at 10mM)
T11 construct: gene GSK3B
T11 sequence (P49841 whole entry): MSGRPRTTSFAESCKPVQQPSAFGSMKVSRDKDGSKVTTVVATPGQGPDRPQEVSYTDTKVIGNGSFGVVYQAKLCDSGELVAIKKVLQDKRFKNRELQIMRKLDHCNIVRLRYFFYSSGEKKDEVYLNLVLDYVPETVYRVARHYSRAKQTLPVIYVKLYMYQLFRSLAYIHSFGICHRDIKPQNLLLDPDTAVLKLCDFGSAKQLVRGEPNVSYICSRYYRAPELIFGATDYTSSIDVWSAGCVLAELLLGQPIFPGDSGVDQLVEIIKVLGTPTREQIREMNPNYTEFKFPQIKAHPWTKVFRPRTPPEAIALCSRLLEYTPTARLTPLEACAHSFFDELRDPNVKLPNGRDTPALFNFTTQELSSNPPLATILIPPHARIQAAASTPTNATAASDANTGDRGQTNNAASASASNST

MAPKAPK2 = MAPKAPK2 (Homo sapiens, UniProt P49137); settings: read-out: % Inhibition (at 10mM)
Bmx = Bmx (Homo sapiens, UniProt P51813); settings: read-out: % Inhibition (at 10mM)
CLK1 = CLK1 (Homo sapiens, UniProt P49759); settings: read-out: % Inhibition (at 10mM)
Brk = target: T12, Brk (Homo sapiens, UniProt Q13882); settings: read-out: % Inhibition (at 10mM)
T12 construct: gene PTK6

PCTK3 = target: T13, PCTK3 (Homo sapiens, UniProt Q07002); settings: read-out: % Inhibition (at 10mM)
T13 construct: gene CDK18

BTK = BTK (Homo sapiens, UniProt Q06187); settings: read-out: % Inhibition (at 10mM)
PRAK = target: T14, PRAK (Homo sapiens, UniProt Q8IW41); settings: read-out: % Inhibition (at 10mM)
T14 construct: gene MAPKAPK5
T14 sequence (Q8IW41 whole entry): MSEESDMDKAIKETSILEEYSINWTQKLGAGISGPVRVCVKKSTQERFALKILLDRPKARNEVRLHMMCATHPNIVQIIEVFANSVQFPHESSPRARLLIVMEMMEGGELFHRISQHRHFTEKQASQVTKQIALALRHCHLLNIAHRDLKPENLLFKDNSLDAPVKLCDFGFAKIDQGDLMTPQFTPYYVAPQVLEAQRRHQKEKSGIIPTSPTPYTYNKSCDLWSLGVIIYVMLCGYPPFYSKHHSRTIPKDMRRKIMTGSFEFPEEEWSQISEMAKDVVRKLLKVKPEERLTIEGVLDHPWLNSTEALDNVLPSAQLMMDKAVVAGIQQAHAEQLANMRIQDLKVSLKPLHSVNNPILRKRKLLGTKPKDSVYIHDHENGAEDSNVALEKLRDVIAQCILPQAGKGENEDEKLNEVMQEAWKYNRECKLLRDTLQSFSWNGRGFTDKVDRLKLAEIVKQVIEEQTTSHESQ

TSSK2 = TSSK2 (Homo sapiens, UniProt Q96PF2); settings: read-out: % Inhibition (at 10mM)
TrkB = target: T15, TrkB (Homo sapiens, UniProt Q16620); settings: read-out: % Inhibition (at 10mM)
T15 construct: gene NTRK2
T15 sequence (Q16620 whole entry): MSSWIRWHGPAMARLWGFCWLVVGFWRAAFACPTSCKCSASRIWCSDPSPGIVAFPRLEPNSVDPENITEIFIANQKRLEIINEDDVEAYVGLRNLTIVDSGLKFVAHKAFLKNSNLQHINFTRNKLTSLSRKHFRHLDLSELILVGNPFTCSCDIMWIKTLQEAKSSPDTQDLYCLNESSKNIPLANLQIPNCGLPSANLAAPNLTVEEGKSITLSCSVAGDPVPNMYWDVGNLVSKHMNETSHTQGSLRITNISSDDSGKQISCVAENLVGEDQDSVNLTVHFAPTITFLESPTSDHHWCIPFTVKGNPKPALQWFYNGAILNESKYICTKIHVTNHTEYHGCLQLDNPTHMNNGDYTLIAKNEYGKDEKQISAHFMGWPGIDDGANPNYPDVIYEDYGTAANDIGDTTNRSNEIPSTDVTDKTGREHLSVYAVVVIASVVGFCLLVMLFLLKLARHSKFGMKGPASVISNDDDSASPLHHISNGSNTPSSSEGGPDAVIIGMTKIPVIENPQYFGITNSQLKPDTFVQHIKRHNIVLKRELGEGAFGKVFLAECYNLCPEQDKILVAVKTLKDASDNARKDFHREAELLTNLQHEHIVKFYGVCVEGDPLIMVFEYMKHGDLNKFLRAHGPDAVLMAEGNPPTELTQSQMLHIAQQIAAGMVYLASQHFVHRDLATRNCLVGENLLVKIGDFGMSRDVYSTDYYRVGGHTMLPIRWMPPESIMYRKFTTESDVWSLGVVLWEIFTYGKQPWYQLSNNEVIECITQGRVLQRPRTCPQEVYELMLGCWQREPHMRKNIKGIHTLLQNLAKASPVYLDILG

MRCK_beta = target: T16, MRCK_beta (Homo sapiens, UniProt Q9Y5S2); settings: read-out: % Inhibition (at 10mM)
T16 construct: gene CDC42BPB

Ret = Ret (Homo sapiens, UniProt P07949); settings: read-out: % Inhibition (at 10mM)
Axl = Axl (Homo sapiens, UniProt P30530); settings: read-out: % Inhibition (at 10mM)
EphB2 = EphB2 (Homo sapiens, UniProt P29323); settings: read-out: % Inhibition (at 10mM)
mTOR = mTOR (Homo sapiens, UniProt P42345)
HIPK2 = HIPK2 (Homo sapiens, UniProt Q9H2X6); settings: read-out: % Inhibition (at 10mM)
p70S6Kb = target: T17, p70S6Kb (Homo sapiens, UniProt Q9UBS0); settings: read-out: % Inhibition (at 10mM)
T17 construct: gene RPS6KB2

PKC_delta = target: T18, PKC_delta (Homo sapiens, UniProt Q05655); settings: read-out: % Inhibition (at 10mM)
T18 construct: gene PRKCD
T18 sequence (Q05655 whole entry): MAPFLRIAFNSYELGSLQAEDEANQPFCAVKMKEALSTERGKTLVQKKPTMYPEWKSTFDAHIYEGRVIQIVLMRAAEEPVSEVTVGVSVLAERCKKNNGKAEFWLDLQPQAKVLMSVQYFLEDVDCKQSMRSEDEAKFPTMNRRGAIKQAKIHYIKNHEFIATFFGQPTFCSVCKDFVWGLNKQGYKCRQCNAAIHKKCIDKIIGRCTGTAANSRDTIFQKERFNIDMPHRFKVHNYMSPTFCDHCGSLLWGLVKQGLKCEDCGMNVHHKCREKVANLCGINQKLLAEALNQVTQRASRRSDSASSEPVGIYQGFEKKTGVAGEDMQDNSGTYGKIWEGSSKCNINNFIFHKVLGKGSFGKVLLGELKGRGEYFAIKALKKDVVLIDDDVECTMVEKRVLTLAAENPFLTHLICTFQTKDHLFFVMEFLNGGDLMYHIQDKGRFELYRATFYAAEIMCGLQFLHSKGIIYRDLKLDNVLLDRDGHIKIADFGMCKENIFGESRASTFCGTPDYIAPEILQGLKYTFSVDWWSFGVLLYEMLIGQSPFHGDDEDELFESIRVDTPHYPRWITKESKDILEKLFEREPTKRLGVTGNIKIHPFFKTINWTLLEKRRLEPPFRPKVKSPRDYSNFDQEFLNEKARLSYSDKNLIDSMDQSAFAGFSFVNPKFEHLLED

SGK1 = SGK1 (Homo sapiens, UniProt O00141); settings: read-out: % Inhibition (at 10mM)
GRK6 = GRK6 (Homo sapiens, UniProt P43250); settings: read-out: % Inhibition (at 10mM)
SRPK1 = SRPK1 (Homo sapiens, UniProt Q96SB4); settings: read-out: % Inhibition (at 10mM)

CC(C)(O)CC(=O)NCCn1ccc2ncnc(Nc3ccc(Oc4cccc(C(F)(F)F)c4)c(Cl)c3)c21 [TAK-285]
inhibition (YSK1): 5.5%
inhibition (PRKAA1): 6%
inhibition (FGFR4): 6%
inhibition (CK1_delta): -1.5%
inhibition (CSK): 56.5%
inhibition (PAK4): 5.5%
inhibition (DYRK1A): 9.5%
inhibition (IKK_beta): -0.5%
inhibition (YSK4): 1%
inhibition (p38_gamma): 12.5%
inhibition (PKC_gamma): 8%
inhibition (InsR): 9.5%
inhibition (PhK_gamma2): -0.5%
inhibition (PKC_alpha): 13.5%
inhibition (CK1_gamma1): 2.5%
inhibition (Abl): 9%
inhibition (Lyn): 39.5%
inhibition (GSK3_beta): 9%
inhibition (MAPKAPK2): 7.5%
inhibition (Bmx): 13.5%
inhibition (CLK1): 10.5%
inhibition (Brk): 65%
inhibition (PCTK3): 6%
inhibition (BTK): 36%
inhibition (PRAK): 3.5%
inhibition (TSSK2): 10.5%
inhibition (TrkB): 4.5%
inhibition (MRCK_beta): 1.5%
inhibition (Ret): 15.5%
inhibition (Axl): 5%
inhibition (EphB2): 12%
inhibition at 10 µM (mTOR): 9.5%
inhibition (HIPK2): 6%
inhibition (p70S6Kb): 2.5%
inhibition (PKC_delta): 15.5%
inhibition (SGK1): 2%
inhibition (GRK6): -1.5%
inhibition (SRPK1): 10.5%
